Assay results reported in patent publication US4029688A, “Carbamic pesticidal compositions” (priority 1974, dated 1977).
≈ marks a conversion by molar mass, not a printed value.

Columns and labels:
Type in all cases: in vivo
[1] = test system: two-spotted mite (Tetranychus urticae Koch); assay: Mite Foliage Spray Test; parameters: key to Mite (Spray): C: no control; B: partial control; A: excellent control; conditions: for Mite (Spray): foliage spray, 500 parts per million, six days; for LC50: Tetranychus urticae, foliar, Table II, side by side comparison, read-out: Mites Spray LD50
Description: (§1) Suspensions of the test compounds were prepared by dissolving one gram of compound in 50 milliliters of acetone in which had been dissolved 0.1 gram (10 percent of the weight of compound) of an alkylphenoxy polyethoxyethanol surfactant, as an emulsifying or dispersing agent. The resulting solution was mixed into 150 milliliters of water to give roughly 200 milliliters of a suspension containing the compound in finely divided form. The thus-prepared stock suspension contained 0.5 percent by weight of compound. The test concentrations in parts per million by weight employed in the tests described hereinbelow were obtained by appropriate dilutions of the stock suspension with water. The test procedures were as follows:
Adults and numphal stages of the two-spotted mite (Tetranychus urticae Koch), reared on Tendergreen bean plants at 80±5 percent relative humidity, were the test organisms. Infested leaves from a stock culture were placed on the primary leaves of two bean plants six to eight inches in height, growing in a 21/2 inch clay pot. 150 -200 Mites, a sufficient number for testing, transferred from the excised leaves to the fresh plants in a period of twenty-four hours. Following the twenty-four hour transfer period, the excised leaves were removed from the infested plants. The test compounds were formulated by diluting the stock suspension with water to give a suspension containing 500 parts of test compound per million parts of final formulation. The potted plants (one pot per compound) were placed on a revolving turntable and sprayed with 100-110 milliliters of test compound formulation by use of a DeVilbiss spray gun set at 40 psig. air pressure. This application, which lasted 25 seconds, was sufficient to wet the plants to run-off. As a control, 100-110 milliliters of a water solution containing acetone and emulsifier in the same concentrations as the test compound formulation, but containing no test compound, were also sprayed on infested plants. The sprayed plants were held at 80±5 percent relative humidity for six days, after which a mortality count of motile forms was made. Microscopic examination for motile forms was made on the leaves of the test plants. Any individual which was capable of locomotion upon prodding was considered living.
(§2) In the tests described above, the pesticidal activity of the compounds against aphid, mite, Southern Armyworm, Bean Beetle, house fly and nematode was rated as follows:
(§3) Comparison tests were conducted to assess the biological and chemical properties of certain representative species of the claimed invention in relation to their corresponding N-methyl carbamate compositions. The test procedures described above were employed in these experiments in order to determine the LD50 (number of parts per million of active ingredients required to achieve fifty percent mortality of the insects tested) for each of the compositions tested. In the case of the aphid and mite tests a side by side comparison was made of the N-methyl carbamate composition versus the corresponding perhalomethylsulfenyl derivative.

[2] = test system: southern armyworm (Prodenia eridania, (Cram.)); assay: Southern Armyworm Leaf Spray Test; parameters: key to Armyworm: C: no control; B: partial control; A: excellent control; conditions: for Armyworm: leaf spray, 500 parts per million, three days; for LC50: Spodoptera eridania, Table II, read-out: Armyworm LD50
Description: as §1
Larvae of the southern armyworm (Prodenia eridania, (Cram.)), reared on Tendergreen bean plants at a temperature of 80°±5° F. and a relative humidity of 50±5 percent, constituted the test insects.
The test compounds were formulated by diluting the stock suspension with water to give a suspension containing 500 parts of test compound per million parts of final formulation. Potted Tendergreen bean plants of standard height and age were placed on a revolving turntable and sprayed with 100-110 milliliters of test compound formulation by use of a DeVilbiss spray gun set at 10 psig air pressure. This application, which lasted 25 seconds, was sufficient to wet plants to run-off. As a control, 100-110 milliliters of a water-acetone-emulsifier solution containing no test compound were also sprayed on infested plants. When dry, the paired leaves were separated and each one was placed in a 9 centimeter Petri dish lined with moistened filter paper. Five randomly selected larvae were introduced into each dish and the dishes were closed. The closed dishes were labeled and held at 80-85° F. for three days. Although the larvae could easily consume the whole leaf within twenty-four hours, no more food was added. Larvae which were unable to move the length of the body, even upon stimulation by prodding, were considered dead. Percent mortality was recorded for various concentration levels.
as §2, §3

[3] = test system: Mexican bean beetle (Epilachna varivestis, Muls.); assay: Mexican Bean Beetle Leaf Spray Test; parameters: key to Beetle: C: no control; B: partial control; A: excellent control; conditions: for Beetle: leaf spray, 500 parts per million, three days; for LC50: Epilachna varivestis, Table II, read-out: Beetle LD50
Description: as §1
Fourth instar larvae of the Mexican bean beetle (Epilachna varivestis, Muls.), reared on Tendergreen bean plants at a temperature of 80°±5° F. and 50±5 percent relative humidity, were the test insects.
The test compounds were formulated by diluting the stock suspension with water to give a suspension containing 500 parts of test compound per million parts of final formulation. Potted Tendergreen bean plants of standard height and age were placed on a revolving turntable and sprayed with 100-110 milliliters of test compound formulation by use of a DeVilbiss spray gun set at 10 psig air pressure. This application, which lasted 25 seconds, was sufficient to wet plants to run-off. As a control, 100-110 milliliters of a water-acetone-emulsifier solution containing no test compound were also sprayed on infested plants. When dry, the paired leaves were separated and each was placed in a 9 centimeter Petri dish lined with moistened filter paper. Five randomly selected larvae were introduced into each dish, and the dishes were closed. The closed dishes were labeled and held at a temperature of 80°±5° F. for three days. Although the larvae could easily consume the leaf within 24 to 48 hours, no more food was added. Larvae which were unable to move the length of the body, even upon stimulation, were considered dead.
as §2, §3

[4] = test system: root-knot nematode, Meloidogyne incognita var. acrita; assay: Nematocide Test; parameters: key: C: no control; B: partial control; A: excellent control; conditions: 3.33 m.g. per jar, galling of cucumber rated after approximately 3 weeks
Description: The test organism used was the infective migratory larvae of the root-knot nematode, Meloidogyne incognita var. acrita, reared in the greenhouse on roots of cucumber plants. Infected plants were removed from the culture, and the roots are chopped very finely. A small amount of this inoculum was added to a pint jar containing approximately 180 cc. of soil. The jars were capped and incubated for one week at room temperature. During this period eggs of the nematode were hatched, and the larval forms migrated into the soil.
Ten ml. of the test formulation were added to each of the two jars for each dosage tested. Following the addition of chemical, the jars were capped, and the contents thoroughly mixed on a ball mill for 5 minutes.
The test compounds were formulated by a standard procedure of solution in acetone addition of an emulsifier, and dilution with water. Primary screening tests were conducted at 3.33 m.g. of the test compound per jar.
The jars were left capped at room temperature for a period of 48 hours, and the contents then transferred to 3 inch pots. Subsequently, the pots were seeded to cucumber as an indicator crop and placed in the greenhouse where they were cared for in the normal fashion for approximately 3 weeks.
The cucumber plants were then taken from the pots, the soil removed from the roots, and the amount of galling visually rated.
In the tests described above, the pesticidal activity of the compounds against aphid, mite, Southern Armyworm, Bean Beetle, house fly and nematode was rated as follows: […]

Row | Compound | Mite (Spray) [1] | Armyworm [2] | Beetle [3] | Nematode [4] | LC50 [1] | LC50 [2] | LC50 [3]
1 | CSCC(C)=NOC(=O)N(C)SC(Cl)(Cl)Cl | C | C | C | C |  |  | 
2 | CSCC(=NOC(=O)N(C)SC(Cl)(Cl)Cl)C(C)(C)C | A | C | A | C |  |  | 
3 | CC(CSC(C)(C)C)=NOC(=O)N(C)SC(Cl)(Cl)Cl | C | C | C | C |  |  | 
4 | CC(=NOC(=O)N(C)SC(Cl)(Cl)Cl)C(C)(C)N=[N+]=[N-] | C | C | A | C |  |  | 
5 | CC(=NOC(=O)N(C)SC(Cl)(Cl)Cl)C(C)(C)[N+](=O)[O-] | A | B | A | A |  |  | 
6 | CC(C[N+](=O)[O-])=NOC(=O)N(C)SC(Cl)(Cl)Cl | C | C | B | C |  |  | 
7 | CC(=NOC(=O)N(C)SC(Cl)(Cl)Cl)C(C)(C)C#N | A | B | A | C |  |  | 
8 | COC(C)(C)C(Cl)=NOC(=O)N(C)SC(Cl)(Cl)Cl | A | C | A | A |  |  | 
9 | CCOC(=O)CSC(C)(C)C=NOC(=O)N(C)SC(Cl)(Cl)Cl | C | C | B | C |  |  | 
10 | CCOC(=O)C(C)SC(C)(C)C=NOC(=O)N(C)SC(Cl)(Cl)Cl (stereo not shown) | B | C | C | C |  |  | 
11 | CSC(=NOC(=O)N(C)SC(Cl)(Cl)Cl)C(C)(SC)SC | A | C | A | C |  |  | 
12 | CCOC(=O)CSC(C)=NOC(=O)N(C)SC(Cl)(Cl)Cl | C | C | C | C |  |  | 
13 | CCOC(=O)CCSC(C)=NOC(=O)N(C)SC(Cl)(Cl)Cl | C | B | B | C |  |  | 
14 | CC(=NOC(=O)N(C)SC(Cl)(Cl)Cl)SCCC#N [1-(2-Cyanoethylthio)acetaldehyde O-(N-methyl-N-trichloromethanesulfenylcarbamoyl)oxime] | A | A | A | C | 22 µg/mL (≈ 62.7 µM) | 6 µg/mL (≈ 17.1 µM) | 15 µg/mL (≈ 42.8 µM)
15 | CN(SC(Cl)(Cl)Cl)C(=O)ON=CC(C)(C)C#N [2-Methyl-2-cyanopropionaldehyde O-(N-methyl-N-trichloromethanesulfenylcarbamoyl)oxime] | A | A | A | C | 23 µg/mL (≈ 72.2 µM) | 50 µg/mL (≈ 157 µM) | 45 µg/mL (≈ 141 µM)
16 | CN(SC(Cl)(Cl)Cl)C(=O)ON=CC(C)(C)[S+](C)[O-] (stereo not shown) [2-Methyl-2-methylsulfinylpropionaldehyde O-(N-methyl-N-trichloromethanesulfenylcarbamoyl)oxime] | A | A | A | A |  |  | 
17 | CN(SC(Cl)(Cl)Cl)C(=O)ON=CC(C)(C)S(C)(=O)=O [2-Methyl-2-methylsulfonylpropionaldehyde O-(N-methyl-N-trichloromethanesulfenylcarbamoyl)oxime] | A | C | A | C |  |  | 
18 | CN(SC(Cl)(Cl)Cl)C(=O)ON=CC(C)(C)[N+](=O)[O-] [2-Methyl-2-nitropropionaldehyde O-(N-methyl-N-trichloromethanesulfenylcarbamoyl)oxime] | A | A | A | A | 40 µg/mL (≈ 118 µM) | 130 µg/mL (≈ 384 µM) | 17 µg/mL (≈ 50.2 µM)
19 | CN(SC(F)(F)F)C(=O)ON=CC(C)(C)C#N [drawing 12] | A | A | A | A |  |  | 
